Non-standard residues stand in square brackets, D forms with d. Residues, ends and D or L forms follow the SMILES beside them. *: point of attachment. Myristoyl = CCCCCCCCCCCCCC(=O)*; Octanoyl = CCCCCCCC(=O)*
Key:
[1] = Stability of conjugates in Simulated Intestinal Fluid (SIF); type: in vitro ADME; conditions: simulated intestinal fluid pH 6.7 with pancreatin, 1 μM, 37° C.
Procedure, shortened: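 Conjugates at 1 μM (from 1 mM DMSO stock) were incubated with agitation at 37° C. in freshly made SIF: FaSSIF powder plus pancreatin in pH 6.7 phosphate buffer. Aliquots taken at T0 and at regular intervals were quenched with 1 volume acetonitrile, and LC/MS gave degradation rates.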

[2] = In vitro Colonic Material Stability Assay; type: in vitro ADME; conditions: for Assay 3 (% Remaining at 24 h): colonic material slurry, anaerobic, 1 or 10 μM
Procedure, shortened: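 Compounds were added at 1 or 10 μM final to colonic material slurry (6.7 μL of 15% w/v slurry per 1 mL YCFAC or similar medium). Samples taken at 0–2880 min were acetonitrile-quenched and the remaining compound quantified by LC/MS.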

WT ClbP = assay: Assay with purified ClbP protein (LCMS); type: biochemical, E. coli; conditions: 20 μM WT ClbP, room temperature, 24 h
Protocol: This example is representative of the method described in Example 91 the soluble peptidase domain (amino acids 38 to 375) of ClbP or the catalytically inert mutant S95A was cloned into pET28a using previously defined boundaries as a starting point (Brotherton, J. Am. Chem. Soc., 135:3359-3362, 2013).
WT ClbP or S95A ClbP was isolated as an N-terminally tagged HiS6-SUMO1-fusion protein from […] using E. coli BL21(DE3)RIPL to express the protein. The cells were lysed in 30 mM Tris pH 8.0, 300 mM NaCl, 10% (v/v) glycerol, benzonase (Sigma-Millipore), lysozyme, B-per (ThermoFisher), and Y-per (ThermoFisher). The lysate was clarified via centrifugation (13,000 g, 20 min), and the supernatant was incubated with HiBond Ni-NTA agarose (5 mL). The resin was subsequently washed with wash buffer (30 mM Tris pH 7.5, 250 mM NaCl, 10 mM imidazole, 3% (v/v) glycerol, and 2 mM TCEP). The resin was incubated at 30° C. for 1 h with 1.4 mg ULP1 protease. The resin was then washed with an additional fraction of wash buffer. Centrifuge filtration was used to concentrate the protein, and the concentrated protein was subsequently applied to a 16/600 Superdex 200 size exclusion column with an isocratic elution of 25 mM HEPES, 25 mM Tris pH 7.4, 325 mM NaCl, 10 mM KCl and 3% (v/v) glycerol at a flow rate of […]. The fractions containing the protein were determined by SDS-PAGE, combined, and concentrated by centrifuge filtration. 3 mM TCEP was added to the concentrated protein, which was then aliquoted, flash frozen in liquid N2, and stored at −80° C.
This example is representative of the method described in Example D, ClbP was incubated with test compounds in an in vitro assay. In a typical assay, 0, 1, or 20 μM purified WT or S95A ClbP was incubated with 100 or 500 μM compound in reaction buffer (50 mM Tris-HCl pH 7.5, 37.5 mM NaCl) at room temperature for 24 h. The total volume of this reaction was 150 μL.
After 24 h, 2 volumes of acetonitrile (300 μL) were added to the reaction to quench the solution.
The reaction was centrifuged (4,000 g, 15 min), and then the supernatant was analyzed by LCMS. 5 μL of the supernatant was injected onto an Acquity UPLC BEH C18 1.7 μm 2.1×100 column. Buffer A was 0.1% (v/v) formic acid in water and buffer B was 0.1% (v/v) formic acid in acetonitrile. The flow rate was 0.5 mL/min. The initial % B was 10, which was held for 30 s then ramped up to 90% B over 3 min, held at 90% B for 1 min, ramped down to 10% B over 15 s, and then held at 10% B for 15 s. The UV-Vis spectrum from 210-400 nm was monitored with 3.6 nm resolution. Positive and negative mode ESI were monitored from 100-1000 m/z with a 20 V cone voltage at 5 Hz sampling frequency in centroid collection.
The relative starting material remaining in the WT ClbP reaction was determined by LCMS and then compared to the residual starting material in the no-enzyme and catalytically inert enzyme (S95A ClbP) reactions. In an ideal case, the amount of residual starting material in the WT ClbP reaction was <25% of the amount in the S95A ClbP and no-enzyme conditions. In an acceptable case, the amount of residual starting material in the WT ClbP reaction was 25-75% of the amount in the S95A ClbP and no-enzyme conditions. In a non-preferred case, the amount of residual starting material in the WT ClbP reaction was >75% of the amount in the S95A ClbP and no-enzyme conditions.
Formation of the anticipated product was likewise quantified by LCMS analysis and confirmed by coelution with an external product standard. In an ideal case, the amount of product formed in the WT ClbP reaction corresponded to >75% of the theoretical maximum. In an acceptable case, the amount of product formed in the WT ClbP reaction corresponded to 25-75% of the theoretical maximum. In a non-preferred case, the amount of product formed in the WT ClbP reaction corresponded to <25% of the theoretical maximum.

CCCCCCCCCCCCCC(=O)N[C@H](CC(N)=O)C(=O)N[C@@H](C)C(=O)OC [Example 1, Methyl tetradecanoyl-D-asparaginyl-L-alaninate] (Myristoyl-[dN]-Ala-OMe)
Assay 2 (SIF) (% @ Remaining 4 hours) [1]: A (<25% of the tested compound remaining)
Assay 3 (% Remaining at 24 h) [2]: A (<25% of the tested compound remaining)
Status (compound remaining in WT ClbP reaction relative to no-enzyme control) (WT ClbP; 500 μM compound): − (>75% compound remaining in the 20 μM WT ClbP reaction relative to the no-enzyme control)

CCCCCCCC(=O)N[C@H](CC(N)=O)C(=O)N[C@@H](C)C(=O)OC [Example 2, Methyl octanoyl-D-asparaginyl-L-alaninate] (Octanoyl-[dN]-Ala-OMe)
Assay 2 (SIF) (% @ Remaining 4 hours) [1]: A (<25% of the tested compound remaining)
Assay 3 (% Remaining at 24 h) [2]: C (>75% of the tested compound remaining)
Status (compound remaining in WT ClbP reaction relative to no-enzyme control) (WT ClbP; 100 μM compound): ++ (<25% compound remaining in the 20 μM WT ClbP reaction relative to the control)

CCCCCCCC(=O)N[C@@H](CC(N)=O)C(=O)N[C@@H](C)C(=O)OC [Example 4, Methyl octanoyl-L-asparaginyl-L-alaninate] (Octanoyl-Asn-Ala-OMe)
Assay 2 (SIF) (% @ Remaining 4 hours) [1]: A (<25% of the tested compound remaining)
Assay 3 (% Remaining at 24 h) [2]: A (<25% of the tested compound remaining)
Status (compound remaining in WT ClbP reaction relative to no-enzyme control) (WT ClbP; 500 μM compound): − (>75% compound remaining in the 20 μM WT ClbP reaction relative to the no-enzyme control)

CCCCCCCC(=O)N[C@H](CC(N)=O)C(=O)N[C@H](C)C(=O)OC [Example 5, Methyl octanoyl-D-asparaginyl-D-alaninate] (Octanoyl-[dN]-[dA]-OMe)
Assay 2 (SIF) (% @ Remaining 4 hours) [1]: C (>75% of the tested compound remaining)
Assay 3 (% Remaining at 24 h) [2]: C (>75% of the tested compound remaining)
Status (compound remaining in WT ClbP reaction relative to no-enzyme control) (WT ClbP; 100 μM compound): ++ (<25% compound remaining in the 20 μM WT ClbP reaction relative to the control)

CCCCCCCC(=O)N[C@H](CC(N)=O)C(=O)N[C@H](C(=O)OC)C(C)C [Example 6, Methyl octanoyl-D-asparaginyl-L-valinate] (Octanoyl-[dN]-Val-OMe)
Assay 2 (SIF) (% @ Remaining 4 hours) [1]: A (<25% of the tested compound remaining)
Assay 3 (% Remaining at 24 h) [2]: B (25-75% of the tested compound remaining)
Status (compound remaining in WT ClbP reaction relative to no-enzyme control) (WT ClbP; 100 μM compound): ++ (<25% compound remaining in the 20 μM WT ClbP reaction relative to the control)

CCCCCCCC(=O)N[C@H](CC(N)=O)C(=O)N[C@@H](CC(C)C)C(=O)OC [Example 7, Methyl octanoyl-D-asparaginyl-L-leucinate] (Octanoyl-[dN]-Leu-OMe)
Assay 2 (SIF) (% @ Remaining 4 hours) [1]: A (<25% of the tested compound remaining)
Assay 3 (% Remaining at 24 h) [2]: A (<25% of the tested compound remaining)
Status (compound remaining in WT ClbP reaction relative to no-enzyme control) (WT ClbP; 100 μM compound): ++ (<25% compound remaining in the 20 μM WT ClbP reaction relative to the control)

CCCCCCCC(=O)N[C@H](CCC(=O)O)C(=O)N[C@@H](C)C(=O)OC [Example 9, (R)-5-(((S)-1-methoxy-1-oxopropan-2-yl)amino)-4-octanamido-5-oxopentanoic acid] (Octanoyl-[dE]-Ala-OMe)
Assay 2 (SIF) (% @ Remaining 4 hours) [1]: B (25-75% of the tested compound remaining)
Assay 3 (% Remaining at 24 h) [2]: B (25-75% of the tested compound remaining)
Status (compound remaining in WT ClbP reaction relative to no-enzyme control) (WT ClbP; 100 μM compound): − (>75% compound remaining in the 20 μM WT ClbP reaction relative to the no-enzyme control)

CCCCCCCC(=O)N[C@H](CCC(N)=O)C(=O)N[C@@H](C)C(=O)OC [Example 10, Methyl octanoyl-D-glutaminyl-L-alaninate] (Octanoyl-[dQ]-Ala-OMe)
Assay 2 (SIF) (% @ Remaining 4 hours) [1]: C (>75% of the tested compound remaining)
Assay 3 (% Remaining at 24 h) [2]: C (>75% of the tested compound remaining)
Status (compound remaining in WT ClbP reaction relative to no-enzyme control) (WT ClbP; 500 μM compound): − (>75% compound remaining in the 20 μM WT ClbP reaction relative to the no-enzyme control)

CCCCCCCC(=O)N[C@H](CCCNC(=N)N)C(=O)N[C@@H](C)C(=O)OC [Example 11, Methyl octanoyl-D-arginyl-L-alaninate] (Octanoyl-[dR]-Ala-OMe)
Assay 2 (SIF) (% @ Remaining 4 hours) [1]: A (<25% of the tested compound remaining)
Assay 3 (% Remaining at 24 h) [2]: C (>75% of the tested compound remaining)
Status (compound remaining in WT ClbP reaction relative to no-enzyme control) (WT ClbP; 500 μM compound): − (>75% compound remaining in the 20 μM WT ClbP reaction relative to the no-enzyme control)

COC(=O)[C@H](C)NC(=O)[C@@H](CC(N)=O)NC(=O)[C@@H](C)c1ccc2cc(OC)ccc2c1 [Example 18, Methyl ((S)-2-(6-methoxynaphthalen-2-yl)propanoyl)-D-asparaginyl-L-alaninate]
Assay 2 (SIF) (% @ Remaining 4 hours) [1]: A (<25% of the tested compound remaining)
Assay 3 (% Remaining at 24 h) [2]: C (>75% of the tested compound remaining)
Status (compound remaining in WT ClbP reaction relative to no-enzyme control) (WT ClbP; 100 μM compound): ++ (<25% compound remaining in the 20 μM WT ClbP reaction relative to the control)

CCCCCCCCCCCCCC(=O)N[C@H](CC(N)=O)C(=O)NCCCC(=O)OC [Example 20, Methyl (R)-4-(4-amino-4-oxo-2-tetradecanamidobutanamido)butanoate]
Assay 2 (SIF) (% @ Remaining 4 hours) [1]: B (25-75% of the tested compound remaining)
Assay 3 (% Remaining at 24 h) [2]: A (<25% of the tested compound remaining)
Selective delivery to the colon (conclusion from Table 2) ([2]; from SGF, SIF and colonic material stability): can be selectively delivered to the colon
Status (compound remaining in WT ClbP reaction relative to no-enzyme control) (WT ClbP; 100 μM compound): − (>75% compound remaining in the 20 μM WT ClbP reaction relative to the no-enzyme control)

CCCCCCCCCCCCCC(=O)N[C@H](CC(N)=O)C(=O)N[C@@H](C)CCC(=O)O[C@]1(CC)C(=O)OCc2c1cc1n(c2=O)Cc2c-1nc1ccc(O)cc1c2CC [Example 35, (S)-4,11-diethyl-9-hydroxy-3,14-dioxo-3,4,12,14-tetrahydro-1H-pyrano[3′,4′:6,7]indolizino[1,2-b]quinolin-4-yl (S)-4-((R)-4-amino-4-oxo-2-tetradecanamidobutanamido)pentanoate]
Assay 2 (SIF) (% @ Remaining 4 hours) [1]: C (>75% of the tested compound remaining)

CCCCCCCC(=O)N[C@H](CC(N)=O)C(=O)NCCN(C)C(=O)Oc1ccc2c(C)cc(=O)oc2c1 [Example 70, 4-methyl-2-oxo-2H-chromen-7-yl (R)-(2-(4-amino-2-octanamido-4-oxobutanamido)ethyl)(methyl)carbamate]
Assay 2 (SIF) (% @ Remaining 4 hours) [1]: C (>75% of the tested compound remaining)
Assay 3 (% Remaining at 24 h) [2]: C (>75% of the tested compound remaining)
